“Also recorded” adds a separate entry of the source.
Assays:
Type in all cases: in vitro ADME
human OCT2 = molecular target: T1, human OCT2 (Homo sapiens, UniProt O15244); experiment: Uptake transporter substrate assay; conditions: OCT2 UPT; for Maximum fold accumulation over control: maximum seen at 1 µM and 20 min, n = 3
T1 sequence (O15244 1-555): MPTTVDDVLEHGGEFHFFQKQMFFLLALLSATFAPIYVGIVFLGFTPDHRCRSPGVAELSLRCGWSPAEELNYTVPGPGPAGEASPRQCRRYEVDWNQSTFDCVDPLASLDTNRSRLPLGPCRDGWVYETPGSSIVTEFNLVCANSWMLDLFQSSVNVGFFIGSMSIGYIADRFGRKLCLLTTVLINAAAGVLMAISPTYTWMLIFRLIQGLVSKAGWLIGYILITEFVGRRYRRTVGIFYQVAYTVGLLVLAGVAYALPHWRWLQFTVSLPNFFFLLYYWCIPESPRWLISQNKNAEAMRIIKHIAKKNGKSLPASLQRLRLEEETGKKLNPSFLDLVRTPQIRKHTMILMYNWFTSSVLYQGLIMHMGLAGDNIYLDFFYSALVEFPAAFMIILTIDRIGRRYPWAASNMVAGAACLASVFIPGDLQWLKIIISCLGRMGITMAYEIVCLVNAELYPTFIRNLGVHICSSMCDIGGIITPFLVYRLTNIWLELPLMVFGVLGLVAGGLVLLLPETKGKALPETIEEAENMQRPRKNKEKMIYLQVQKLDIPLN

human OAT3 = molecular target: T2, human OAT3 (Homo sapiens, UniProt Q8TCC7); experiment: Uptake transporter substrate assay; conditions: OAT3 UPT; for Maximum fold accumulation over control: maximum seen at 5 µM and 20 min, n = 3
T2 sequence (Q8TCC7 1-542): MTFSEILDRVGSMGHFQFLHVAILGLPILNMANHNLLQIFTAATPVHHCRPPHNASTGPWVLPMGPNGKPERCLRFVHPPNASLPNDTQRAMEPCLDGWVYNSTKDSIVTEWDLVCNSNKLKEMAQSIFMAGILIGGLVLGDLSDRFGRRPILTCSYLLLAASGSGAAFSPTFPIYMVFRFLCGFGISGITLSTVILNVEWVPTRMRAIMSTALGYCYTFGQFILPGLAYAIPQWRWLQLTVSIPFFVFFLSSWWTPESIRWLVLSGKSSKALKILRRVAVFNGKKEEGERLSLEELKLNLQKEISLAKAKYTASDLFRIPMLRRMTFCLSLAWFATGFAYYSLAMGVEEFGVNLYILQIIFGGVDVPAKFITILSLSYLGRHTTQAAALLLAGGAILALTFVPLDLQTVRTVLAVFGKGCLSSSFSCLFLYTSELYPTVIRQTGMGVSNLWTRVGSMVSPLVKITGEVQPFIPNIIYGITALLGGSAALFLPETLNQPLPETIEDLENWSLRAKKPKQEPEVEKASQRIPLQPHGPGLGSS

human MDR1 = human MDR1 (Homo sapiens, UniProt P08183); experiment: Transporter substrate assay, MDCKII‐MDR1 monolayer bidirectional transport; conditions: MDR1 ML; for Maximum net ER: maximum seen at 1 and 5 µM, n = 3
human MATE2‐K = human MATE2‐K (Homo sapiens, UniProt Q86VL8); experiment: Uptake transporter substrate assay; conditions: MATE2‐K UPT; for Maximum fold accumulation over control: maximum seen at 2.5 µM and 20 min, n = 3
human OAT1 = molecular target: T3, human OAT1 (Homo sapiens, UniProt Q4U2R8); experiment: Uptake transporter substrate assay; conditions: OAT1 UPT; for Maximum fold accumulation over control: maximum seen at 2.5 µM and 20 min, n = 3
T3 sequence (Q4U2R8 1-563): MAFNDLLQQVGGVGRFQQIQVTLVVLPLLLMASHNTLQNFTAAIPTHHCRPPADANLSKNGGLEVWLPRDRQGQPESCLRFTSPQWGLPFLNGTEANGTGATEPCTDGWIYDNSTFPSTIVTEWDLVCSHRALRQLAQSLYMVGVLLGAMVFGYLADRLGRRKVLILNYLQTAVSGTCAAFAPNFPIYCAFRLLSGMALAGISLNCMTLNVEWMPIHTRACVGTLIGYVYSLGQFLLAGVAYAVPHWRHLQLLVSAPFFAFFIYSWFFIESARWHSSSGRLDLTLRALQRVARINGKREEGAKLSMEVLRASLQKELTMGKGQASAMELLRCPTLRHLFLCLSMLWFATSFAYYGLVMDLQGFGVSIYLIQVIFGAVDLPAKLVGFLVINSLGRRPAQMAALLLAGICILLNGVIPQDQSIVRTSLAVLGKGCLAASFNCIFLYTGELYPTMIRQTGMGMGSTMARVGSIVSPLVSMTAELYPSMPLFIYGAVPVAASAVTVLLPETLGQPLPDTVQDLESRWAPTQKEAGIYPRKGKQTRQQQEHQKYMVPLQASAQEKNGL

human MATE1 = molecular target: T4, human MATE1 (Homo sapiens, UniProt Q96FL8); experiment: Uptake transporter substrate assay; conditions: MATE1 UPT; for Maximum fold accumulation over control: maximum seen at 1 µM and 2 min, n = 3
T4 sequence (Q96FL8 1-570): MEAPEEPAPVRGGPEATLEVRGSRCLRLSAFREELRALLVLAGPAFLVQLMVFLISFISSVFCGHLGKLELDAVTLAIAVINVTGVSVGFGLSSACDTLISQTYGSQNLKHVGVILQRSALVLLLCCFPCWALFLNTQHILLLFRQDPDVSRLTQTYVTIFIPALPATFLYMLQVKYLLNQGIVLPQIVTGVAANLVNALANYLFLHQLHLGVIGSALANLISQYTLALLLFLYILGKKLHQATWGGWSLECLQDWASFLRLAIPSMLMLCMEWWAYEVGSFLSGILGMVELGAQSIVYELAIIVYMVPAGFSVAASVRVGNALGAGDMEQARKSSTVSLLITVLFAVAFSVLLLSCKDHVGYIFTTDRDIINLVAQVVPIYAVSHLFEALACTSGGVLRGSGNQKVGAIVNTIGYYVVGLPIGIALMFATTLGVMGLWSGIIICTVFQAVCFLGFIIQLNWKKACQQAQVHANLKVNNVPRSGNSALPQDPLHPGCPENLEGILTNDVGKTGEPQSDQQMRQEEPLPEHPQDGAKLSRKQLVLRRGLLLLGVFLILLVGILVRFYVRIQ

[1] = listed as 6β‐hydroxy‐21‐desacetyl deflazacort

Sequence of human MATE2‐K (Q86VL8 1-566 isoform Q86VL8-3): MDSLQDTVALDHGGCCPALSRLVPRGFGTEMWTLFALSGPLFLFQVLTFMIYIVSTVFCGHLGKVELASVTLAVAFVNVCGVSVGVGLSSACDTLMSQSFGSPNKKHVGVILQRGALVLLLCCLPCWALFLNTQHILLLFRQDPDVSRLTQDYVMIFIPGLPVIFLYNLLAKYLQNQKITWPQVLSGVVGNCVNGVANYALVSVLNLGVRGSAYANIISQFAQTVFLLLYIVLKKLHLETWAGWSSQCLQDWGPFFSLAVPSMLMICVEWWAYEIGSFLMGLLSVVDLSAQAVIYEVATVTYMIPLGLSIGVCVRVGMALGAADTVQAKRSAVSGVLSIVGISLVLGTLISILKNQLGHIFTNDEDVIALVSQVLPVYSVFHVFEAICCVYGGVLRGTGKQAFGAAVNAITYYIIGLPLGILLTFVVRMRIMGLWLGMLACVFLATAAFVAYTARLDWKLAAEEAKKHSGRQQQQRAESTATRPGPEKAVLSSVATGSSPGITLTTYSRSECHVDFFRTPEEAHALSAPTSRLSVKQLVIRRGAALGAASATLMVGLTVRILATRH
Sequence of human MDR1 (P08183 whole entry): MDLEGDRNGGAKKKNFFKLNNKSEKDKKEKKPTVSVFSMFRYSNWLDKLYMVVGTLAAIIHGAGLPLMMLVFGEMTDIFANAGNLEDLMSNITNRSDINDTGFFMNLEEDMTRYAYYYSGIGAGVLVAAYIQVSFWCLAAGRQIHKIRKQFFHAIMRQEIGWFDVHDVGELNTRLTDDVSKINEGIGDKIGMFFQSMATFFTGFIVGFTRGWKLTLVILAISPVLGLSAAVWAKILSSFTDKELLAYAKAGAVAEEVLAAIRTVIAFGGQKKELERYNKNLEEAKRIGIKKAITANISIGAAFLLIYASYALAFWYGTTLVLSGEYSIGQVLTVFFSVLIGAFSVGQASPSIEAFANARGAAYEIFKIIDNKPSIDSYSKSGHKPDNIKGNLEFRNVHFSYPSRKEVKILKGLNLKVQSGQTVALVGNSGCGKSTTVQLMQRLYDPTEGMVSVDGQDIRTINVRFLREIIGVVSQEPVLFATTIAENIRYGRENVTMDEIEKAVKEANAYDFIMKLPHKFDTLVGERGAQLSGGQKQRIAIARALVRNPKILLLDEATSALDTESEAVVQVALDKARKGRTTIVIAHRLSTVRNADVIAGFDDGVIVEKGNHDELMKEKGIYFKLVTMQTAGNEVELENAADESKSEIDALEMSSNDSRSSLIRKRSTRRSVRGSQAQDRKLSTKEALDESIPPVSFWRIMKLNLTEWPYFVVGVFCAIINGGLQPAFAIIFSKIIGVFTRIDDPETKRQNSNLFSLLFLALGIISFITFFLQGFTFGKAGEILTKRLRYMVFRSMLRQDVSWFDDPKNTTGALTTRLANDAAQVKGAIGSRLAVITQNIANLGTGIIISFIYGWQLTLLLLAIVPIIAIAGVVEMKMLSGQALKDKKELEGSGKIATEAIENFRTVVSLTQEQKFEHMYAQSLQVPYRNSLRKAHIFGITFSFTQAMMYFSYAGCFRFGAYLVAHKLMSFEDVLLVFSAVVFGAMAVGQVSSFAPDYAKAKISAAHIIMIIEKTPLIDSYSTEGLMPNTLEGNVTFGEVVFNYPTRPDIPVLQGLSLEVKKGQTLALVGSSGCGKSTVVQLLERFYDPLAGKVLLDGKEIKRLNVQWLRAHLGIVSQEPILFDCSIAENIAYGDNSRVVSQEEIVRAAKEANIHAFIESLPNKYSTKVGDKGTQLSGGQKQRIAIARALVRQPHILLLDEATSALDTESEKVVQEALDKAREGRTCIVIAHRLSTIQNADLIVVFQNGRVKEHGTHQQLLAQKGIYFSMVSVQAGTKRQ

Which results are given for `CC1=N[C@]2(C(=O)CO)[C@@H](C[C@H]3[C@@H]4C[C@@H](O)C5=CC(=O)C=C[C@]5(C)[C@H]4[C@@H](O)C[C@@]32C)O1` [6β‐OH‐21‐desDFZ, 6β‐Hydroxy‐21‐desacetyl deflazacort]?
Substrate potential (human OCT2): not a substrate; Substrate potential (human OCT2; [1]): No; Maximum fold accumulation over control (human OCT2): 1.32 at 1 µM and 20 min fold; Substrate potential (human OAT3): appeared to be an in vitro substrate; also recorded: in vitro substrate for human OAT3; Fold accumulation over control, without inhibitor (inhibitor experiment) (human OAT3; before inhibitor‐reduced accumulation): 1.75 fold; Substrate potential (human OAT3; [1]): Yes; Maximum fold accumulation over control (human OAT3): 2.71 fold; Substrate potential (human MDR1): not a substrate; Substrate potential (human MDR1; [1]): No; Maximum net ER (human MDR1): 0.59 at 1 and 5 µM; Substrate potential (human MATE2‐K): not a substrate; Substrate potential (human MATE2‐K; [1]): No; Maximum fold accumulation over control (human MATE2‐K): 1.08 at 2.5 µM and 20 min fold; Substrate potential (human OAT1): not a substrate; Substrate potential (human OAT1; [1]): No; Maximum fold accumulation over control (human OAT1): 1.15 at 2.5 µM and 20 min fold; Substrate potential (human MATE1): not a substrate; Substrate potential (human MATE1; [1]): No; Maximum fold accumulation over control (human MATE1): 1.18 at 1 µM and 2 min fold

For “[2’-^14C]-6β-hydroxy-21-desacetyl-deflazacort [^14C‐6β‐OH‐21‐desDFZ]”, which “Maximum fold accumulation over control” value (human OCT2) is on record?
The value was < 2 fold.

What about the Substrate potential (human OAT3) of the same molecule?
Its Substrate potential is “is an OAT3 substrate in vitro”.

And the “Fold accumulation over control, in the presence of OAT3 inhibitor” value (human OAT3; with inhibitor probenecid)?
Its value is 1.08 fold.

And the “Maximum fold accumulation over control” value (human OAT3)?
Its value is 2.71 fold.

And the “Maximum net ER” value (human MDR1)?
Its value is 0.59.

What about the “Maximum fold accumulation over control” value (human MATE2‐K) of the same molecule?
Its value is < 2 fold.

And the “Maximum fold accumulation over control” value (human OAT1)?
Its value is < 2 fold.

What about the “Maximum fold accumulation over control” value (human MATE1) of the same molecule?
The value was < 2 fold.

From paper PMC7982320 (Pharmacology Research & Perspectives, 2021)
